Patent publication US9447060B2, “Small molecule modulators of pRb inactivation” (The Wistar Institute of Anatomy and Biology, priority 2011, dated 2016)

Assays:
[1] = target: T1, GST-pRbABC/E2F complex disrupted by 6×His-HPV1AE7CR2-3 (Homo sapiens, UniProt P06400); experiment: ELISA: inhibition of HPV1A-E7-mediated disruption of pRb/E2F complexes; format: binding, low risk HPV (type 1A); conditions: E2F remaining bound to pRb; 500 nM 1AE7
T1 construct: made in house; host or cells: pRb: Sf9; E2F1 and E7: E. coli BL21(DE3)
T1 sequence (P06400 376-928): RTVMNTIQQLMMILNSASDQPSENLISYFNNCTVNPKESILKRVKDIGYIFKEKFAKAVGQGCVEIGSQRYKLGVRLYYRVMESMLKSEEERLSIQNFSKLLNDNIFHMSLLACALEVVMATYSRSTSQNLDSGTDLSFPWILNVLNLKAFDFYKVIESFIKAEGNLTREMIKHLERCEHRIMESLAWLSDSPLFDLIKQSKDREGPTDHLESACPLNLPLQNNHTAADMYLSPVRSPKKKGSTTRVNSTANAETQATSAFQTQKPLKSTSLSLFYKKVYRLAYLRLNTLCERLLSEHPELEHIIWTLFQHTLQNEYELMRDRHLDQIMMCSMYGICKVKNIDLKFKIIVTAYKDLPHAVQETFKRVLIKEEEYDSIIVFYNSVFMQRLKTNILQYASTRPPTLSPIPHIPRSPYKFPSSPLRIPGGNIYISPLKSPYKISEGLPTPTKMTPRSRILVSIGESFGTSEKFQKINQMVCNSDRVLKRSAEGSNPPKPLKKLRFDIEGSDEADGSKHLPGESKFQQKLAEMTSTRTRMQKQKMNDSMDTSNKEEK
T1 sequence (Q01094 243-437 partner limits assumed): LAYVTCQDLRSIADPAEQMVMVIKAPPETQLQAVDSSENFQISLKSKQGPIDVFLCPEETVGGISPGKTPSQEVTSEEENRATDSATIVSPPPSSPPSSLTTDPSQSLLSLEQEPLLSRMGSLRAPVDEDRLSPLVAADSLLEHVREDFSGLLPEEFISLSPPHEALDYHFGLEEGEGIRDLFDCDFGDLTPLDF
Method: (§1) Since HPV-E7 mediates high affinity pRb binding through the association of its L×C×E motif in CR2 to the B domain of pRb, the ability of the thiadiazolidinedione compounds to inhibit the ability of other L×C×E containing viral oncoproteins from disrupting E2F/pRb complexes was tested. The other L×C×E containing viral oncoproteins tested included HPV-E7 from a low risk HPV form (type 1A) and Adenovirus E1A proteins.
(§2) A similar ELISA assay was used to assess the ability of the compounds to inhibit the ability of HPV16-E7-mediated disruption of E2F/pRb complexes. For these studies, 6×His-HPV1AE7CR2-3 and 6×His-Ad5E1ACR1-3, containing the L×C×E motif, were employed. The assay described above was modified in such a way that GST-pRbABC alone was added to HPV-E7CR2-3+ compound, HPV-E7CR2-3+DMSO, Ad5-E1ACR1-3+ compound, or Ad5-E1ACR1-3 DMSO. Mouse monoclonal anti-His antibody (Fisher) diluted 1:10,000 was used to detect how much His-E7CR2-3 remained bound to GST-pRbABC on the plate. Mouse monoclonal Ad5-E1A antibody (Abeam) diluted 1:10,000 was used to detect how much E1ACR1-3 remained bound to GST-pRbABC on the plate. All other steps remained unchanged.

[2] = target: T2, GST-pRbABC/E2F complex disrupted by 6×His-Ad5E1ACR1-3 (Homo sapiens, UniProt P06400); experiment: ELISA: inhibition of adenovirus E1A-mediated disruption of pRb/E2F complexes; format: binding; conditions: E2F remaining bound to pRb; 100 nM E1A
T2 construct: made in house; host or cells: pRb: Sf9; E2F1 and E1A: E. coli BL21(DE3)
T2 sequence (P06400 376-928): T1 sequence (P06400 376-928)
T2 sequence (Q01094 243-437 partner limits assumed): T1 sequence (Q01094 243-437 partner limits assumed)
Method: as §1, §2

[3] = target: T3, GST-pRbABC/6×His-HPV16-E7CR2-3 complex (Homo sapiens, UniProt P06400); experiment: ELISA: disruption of pRb/HPV16-E7 complex; format: binding; conditions: disruption of pRb/viral oncoprotein complex; 500 nM 16E7
T3 construct: made in house; host or cells: pRb: Sf9; E7: E. coli BL21(DE3)
T3 sequence (P06400 376-928): T1 sequence (P06400 376-928)
Method: An ELISA assay was utilized with modifications such that the amount of 6×His-HPV16-E7CR2-3 remaining bound to the partner protein on the plate could be measured. The compounds identified in Example 2 were purchased (Lankenau Institute for Medical Research) as powders. Their purity was verified by LC/MS and their structures by NMR. IC50 values were then measured for (i) the compounds identified in Example 1, (ii) the compounds prepared according to Examples 3-5, (iii) 2-phenyl-4-methyl-1,2,4-thiadiazolidin-3,5-dione (available from Molport, Latvia), and (iv) 4-benzyl-2-methyl-1,2,4-thiadiazolidin-3,5-dione (TDZD-8; Catalog No. T8325-5MG, Sigma) using the same ELISA-based assay as described for the high-throughput screen, except that the assay was performed manually in 96-well format and so all volumes used were double those from 384-well format.
All compounds were solubilized in DMSO (50 mM) and diluted for use in the ELISA-based assay at a final DMSO concentration of less than 5%. Ten-fold dilutions of thiadiazolin-3,5-dione compound (starting at 100 μM) were added to a mixture containing GST-pRbABC and 6×His-HPV16E7CR2-3. The amount of E7 remaining was determined by adding a primary anti-His antibody. The concentrations of the compounds in the IC50 experiment spanned the range of enzyme activity from no inhibition to complete inhibition. Three independent IC50 measurements were performed for each compound and the average and standard deviation values are reported. All data was imported into the GraphPad® Software (Prism) for IC50 determination. To calculate the IC50 values, the dose-response curves were fit to one-site (Hill slope=1) sigmoidal-dose-response curves.

[4] = target: T4, GST-pRbABC/6×His-HPV1AE7CR2-3 complex (Homo sapiens, UniProt P06400); experiment: ELISA: disruption of pRb/HPV1A-E7 complex; format: binding, low risk HPV (type 1A); conditions: disruption of pRb/viral oncoprotein complex; 500 nM 1AE7
T4 construct: made in house; host or cells: pRb: Sf9; E7: E. coli BL21(DE3)
T4 sequence (P06400 376-928): T1 sequence (P06400 376-928)
Method: as §2

[5] = target: T5, GST-pRbABC/6×His-Ad5E1ACR1-3 complex (Homo sapiens, UniProt P06400); experiment: ELISA: disruption of pRb/Ad5-E1A complex; format: binding, adenovirus; conditions: disruption of pRb/viral oncoprotein complex; 100 nM E1A
T5 construct: made in house; host or cells: pRb: Sf9; E1A: E. coli BL21(DE3)
T5 sequence (P06400 376-928): T1 sequence (P06400 376-928)
Method: as §2

pRbAB = target: T6, pRbAB (Homo sapiens, UniProt P06400, DEL590-635); experiment: Isothermal titration calorimetry binding to pRbAB; conditions: ITC, pRbAB, 22° C.
T6 construct: untagged pRbAB (372-787 with the linker from 590-635 removed); made in house
T6 sequence (P06400 with tags, fused parts or gaps DEL590-635): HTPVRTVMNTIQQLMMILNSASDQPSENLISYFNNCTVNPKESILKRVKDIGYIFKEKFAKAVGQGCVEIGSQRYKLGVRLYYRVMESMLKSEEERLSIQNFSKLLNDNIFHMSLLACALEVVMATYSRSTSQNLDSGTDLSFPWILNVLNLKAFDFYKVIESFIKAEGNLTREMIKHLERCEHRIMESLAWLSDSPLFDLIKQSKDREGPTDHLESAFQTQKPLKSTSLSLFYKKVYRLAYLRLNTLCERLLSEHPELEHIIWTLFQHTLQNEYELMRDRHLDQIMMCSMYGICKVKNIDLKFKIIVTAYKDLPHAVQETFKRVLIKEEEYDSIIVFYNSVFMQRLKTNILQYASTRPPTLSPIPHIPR
Method: For use in isothermal titration calorimetry studies, untagged pRbAB (372-787 with the linker from 590-635 removed) was prepared as described in Xiao et al., PNAS USA, 100:2363-2368 (2003).
This example illustrates the ability of the thiadiazolin-3,5-dione compounds to bind directly to a truncated pRb protein construct containing the A and B domains of the pRb pocket (pRbAB) using isothermal titration calorimetry (ITC).
Binding of compounds 1-9 to pRbAB were measured by ITC using a MicroCal™ VP-ITC isothermal titration calorimeter (MicroCal, Inc). Proteins were extensively dialyzed against a buffer containing Hepes (20 mM), pH=7.5, NaCl (150 mM) and Tris carboxy ethyl phosphine (0.1 mM) prior to analysis. Eight to twelve μL injections of 750-1500 μM compound were titrated into a pRb solution (50-150 μM) pre-equilibrated to 22° C. After subtraction of dilution heats, calorimetric data were analyzed with the MicroCal™ Origin® V5.0 (MicroCal Software, Northampton, Mass.).

SiHa cells = experiment: Cell cycle and apoptosis in SiHa cells, propidium iodide flow cytometry and morphology; format: cell-based; conditions: 48 hours, 10 μM compound (staurosporine 2 μM)
Method: Since the thiadiazolin-3,5-dione compounds bind to pRb, data was generated regarding their effect in cells infected with HPV. […] DNA content was determined by propidium iodine staining and analysis by flow cytometry.
Cultured cell lines were seeded in 60 mm tissue culture dishes (Falcon) at 1×10^5 cells/well. […] Cells were then trypsinized, washed with phosphate-buffered saline (1.0 mL; PBS), and fixed in ethanol (80%) for 30 minutes on ice. Fixed cells were spun at 500 g for 5 minutes, rehydrated with PBS (1 mL), and spun again to remove any traces of ethanol. Cells were stained with propidium iodide (250 μL; PI), which was prepared by adding PI (100 μL, 2 mg/ml, Sigma) and RNase A (3.5 μL of 30 mg/ml, Sigma) into PBS (10 mL). Cells were then analyzed at the Wistar Institute Flow Cytometry Core Facility using standard equipment, reagents, and methodologies known in the art.

SiHa cells (HPV 16) = experiment: MTS cytotoxicity in SiHa cells; format: cell-based; conditions: 48 hours
Method: These 120 compounds were then analyzed for cytotoxicity in cervical cancer cells either infected with HPV16 (SiHa) or negative for infection with HPV (C-33A) (Yee et al., 1985). The metabolic viability of cells was measured using a MTS assay (3-(4,5-dimethylthiazol-2-yl)-5-(3-carboxymethoxyphenyl)-2-(4-sulfophenyl)-2H-tetrazolium).
(§3) Cultured cell lines were seeded in 384-well, clear, tissue culture plates (NUNC) at 10,000 cells/well and 1,000 cells/well for C-33A and SiHa, respectively, and maintained overnight. These concentrations were determined based on each cell line's doubling time. […] Cell viability was then monitored by addition of MTS reagent (8 μL; Promega) and measurement at A490 using a Wallac Envision™ plate reader after 3 hours of incubation.
as §3, with “10,000 cells/well, 1,000 cells/well, 1,000 cells/well, 1,000 cells/well,” for “10,000 cells/well”, “and 2,000” for “and 1,000”, “for C-33A,” for “for C-33A and”, “SiHa, HeLa, TC-1, or HCT116 cells,” for “SiHa,”

Compound	IC50 [1] [µM]	IC50 [2] [µM]	IC50 [3] [µM]	IC50 [4] [µM]	IC50 [5] [µM]	Kd (pRbAB) [µM]	effect on SiHa cells (SiHa cells)	% Apoptotic (SiHa cells; SiHa) [%]	% S (SiHa cells; SiHa) [%]	cytotoxicity in SiHa cells (SiHa cells (HPV 16))	% G0/G1 (SiHa cells; SiHa) [%]
Cc1cc(Cl)ccc1-n1sc(=O)n(C(C)C)c1=O [Compound 4]	5.5 ± 1.7	1.3 ± 2.2	4.5 ± 1.5	4.7 ± 2.1	3.8 ± 1.5	0.187 ± 0.022	most drastically affected	15.2	15.8		
Cc1cccc(-n2sc(=O)n(C(C)C)c2=O)c1 [Compound 5]	5.5 ± 1.5	1.1 ± 2.5	3.2 ± 1.3	5.5 ± 2.7	3.5 ± 1.7	0.21 ± 0.051					
COc1ccc(-n2sc(=O)n(C)c2=O)cc1 [Compound 6]	3.3 ± 1.6	1.7 ± 2.7	0.4	1.3 ± 1.3	7.7 ± 1.7	0.381 ± 0.031					
COc1cccc(-n2sc(=O)n(C)c2=O)c1 [Compound 7]	3.5 ± 1.7	3.2 ± 2.7	0.29	4 ± 2.5	2.8 ± 2.1	0.815 ± 0.07					
CN[C@@H]1C[C@H]2O[C@@](C)([C@@H]1OC)n1c3ccccc3c3c4c(c5c6ccccc6n2c5c31)C(=O)NC4 [Staurosporine, reference compound]							most drastically affected	34.3	13.8	toxic	31.3
